“And” between values parts separate entries of the source, which are not always exact repeats. Equal values may be shown once.
Legend:
[1] = test system: primary cortical neurons; experiment: Fura-2 Ca2+ imaging (abnormal Ca2+ response) in cultured cortical neurons
[2] = test system: PC12 cells; experiment: Cell proliferation assay of undifferentiated PC12 cells; conditions: for cell proliferation, Ave (Fig.4c): average of #1-#3
[3] = molecular target: T1, mGlu1(N264H) mutant (Rattus norvegicus, UniProt P23385, N264H); experiment: Inositol-1-phosphate (IP1) accumulation assay, HEK293 cells expressing mGlu1(N264H); assay type: cell-based
T1 construct: expressed in transfected cells; host or cells: HEK293

[4] = test system: mGlu1 construct not given; experiment: Fura-2 Ca2+ imaging in HEK293 cells, source data Suppl Fig1, right group (c18-c26); construct not given; assay type: cell-based, rat; conditions: single-cell values, cells #15-#20; right group of third block
Description: (§1) Supplement 41467_2022_30828_MOESM6_ESM.zip/Ojima et al_source data_Suppl Fig.xlsx, sheet "Suppl Fig1" | column: Glu; NiCl2; CuCl2; ZnCl2; CdCl2; Na2PdCl2; Pd(bpy)

[5] = molecular target: T2, mGlu1 A59H/A265H mutant (Rattus norvegicus, UniProt P23385, A265H/A59H); experiment: Fura-2 Ca2+ imaging in HEK293 cells expressing mGlu1 A59H/A265H; assay type: cell-based; conditions: single-cell values
T2 construct: expressed in transfected cells; host or cells: HEK293

[6] = test system: mGlu1 construct not given; experiment: Fura-2 Ca2+ imaging in HEK293 cells, source data Suppl Fig1, left group (c0-c8); construct not given; assay type: cell-based, rat; conditions: single-cell values, cells #15-#20; left group of third block
Description: as §1

[7] = molecular target: T3, mGlu1 A59H/G266H mutant (Rattus norvegicus, UniProt P23385, A59H/G266H); experiment: Fura-2 Ca2+ imaging in HEK293 cells expressing mGlu1 A59H/G266H; assay type: cell-based; conditions: single-cell values
T3 construct: expressed in transfected cells; host or cells: HEK293

[8] = molecular target: T4, mGlu1 K61H/N264H mutant (Rattus norvegicus, UniProt P23385, K61H/N264H); experiment: Fura-2 Ca2+ imaging in HEK293 cells expressing mGlu1 K61H/N264H; assay type: cell-based
T4 construct: expressed in transfected cells; host or cells: HEK293
T4 sequence (P23385 19-1199 K61H/N264H): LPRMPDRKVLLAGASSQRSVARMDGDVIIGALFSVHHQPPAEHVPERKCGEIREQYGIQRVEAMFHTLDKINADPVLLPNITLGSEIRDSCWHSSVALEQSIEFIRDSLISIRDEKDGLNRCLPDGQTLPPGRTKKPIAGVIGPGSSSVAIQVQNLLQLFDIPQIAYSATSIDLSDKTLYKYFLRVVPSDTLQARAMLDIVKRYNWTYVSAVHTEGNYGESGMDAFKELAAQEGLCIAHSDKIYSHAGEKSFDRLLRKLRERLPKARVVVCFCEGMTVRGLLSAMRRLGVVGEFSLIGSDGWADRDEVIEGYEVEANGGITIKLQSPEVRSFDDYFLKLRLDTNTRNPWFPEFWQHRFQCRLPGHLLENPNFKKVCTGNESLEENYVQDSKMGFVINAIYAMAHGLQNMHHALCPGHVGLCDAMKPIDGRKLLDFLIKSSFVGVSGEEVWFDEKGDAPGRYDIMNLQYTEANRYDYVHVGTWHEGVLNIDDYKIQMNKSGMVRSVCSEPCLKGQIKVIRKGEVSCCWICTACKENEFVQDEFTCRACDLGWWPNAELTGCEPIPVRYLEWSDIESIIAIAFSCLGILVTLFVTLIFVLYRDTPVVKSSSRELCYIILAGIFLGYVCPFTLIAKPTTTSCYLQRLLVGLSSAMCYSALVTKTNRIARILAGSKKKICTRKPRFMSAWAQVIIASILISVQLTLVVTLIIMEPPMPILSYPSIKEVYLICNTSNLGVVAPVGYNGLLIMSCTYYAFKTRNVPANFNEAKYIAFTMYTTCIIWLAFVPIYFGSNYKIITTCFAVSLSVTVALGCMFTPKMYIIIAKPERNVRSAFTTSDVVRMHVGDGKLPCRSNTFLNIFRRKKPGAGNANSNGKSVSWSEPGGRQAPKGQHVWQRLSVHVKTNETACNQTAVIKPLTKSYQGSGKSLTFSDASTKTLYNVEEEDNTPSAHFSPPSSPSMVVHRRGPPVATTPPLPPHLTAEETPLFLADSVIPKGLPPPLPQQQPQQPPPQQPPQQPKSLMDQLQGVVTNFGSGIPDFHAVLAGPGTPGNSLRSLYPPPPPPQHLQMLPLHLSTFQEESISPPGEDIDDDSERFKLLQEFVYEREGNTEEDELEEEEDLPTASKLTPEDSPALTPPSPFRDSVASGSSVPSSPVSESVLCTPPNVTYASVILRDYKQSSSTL

T3 sequence (P23385 19-1199 A59H/G266H): as the sequence (P23385 19-1199 K61H/N264H) above, with A41H, H43K, H246N, G248H counted along it
T1 sequence (P23385 19-1199 N264H): as the sequence (P23385 19-1199 K61H/N264H) above, with H43K counted along it
T2 sequence (P23385 19-1199 A59H/A265H): as the sequence (P23385 19-1199 K61H/N264H) above, with A41H, H43K, H246N, A247H counted along it

O=[N+]([O-])[O-].O=[N+]([O-])[O-].[Pd+2].c1ccc(-c2ccccn2)nc1 [Pd(bpy), Pd(bpy)(NO3)2]
abnormal Ca2+ response, ave (Fig.4d) ([1]; 3 µM Pd complex): -0.0001233
[Ca2+]i elevation (abnormal Ca2+ response) ([1]; 10 μM): gradual [Ca^2+]i elevation was observed
abnormal Ca2+ response, ave (Fig.4d) ([1]; 10 µM Pd complex): 0.1988
[Ca2+]i elevation (abnormal Ca2+ response) ([1]; 30 μM): more prominent
abnormal Ca2+ response, ave (Fig.4d) ([1]; 30 µM Pd complex): 2.468
abnormal Ca2+ response, ave (Fig.4d) ([1]; 100 µM Pd complex): 3.162
abnormal Ca2+ response, ave (Fig.4d) ([1]; 300 µM Pd complex): 3.458
Cell growth ([2]; 30 μM): clearly suppressed
cell proliferation, single experiments #1-#3 (Fig.4c) ([2]; Pd complex 1 µM): 1.5318 and 0.8604 and 0.8836
cell proliferation, Ave (Fig.4c) ([2]; Pd complex 1 µM): 1.092
cell proliferation, single experiments #1-#3 (Fig.4c) ([2]; Pd complex 3 µM): 1.071 and 0.9613 and 0.8889
cell proliferation, Ave (Fig.4c) ([2]; Pd complex 3 µM): 0.9739
cell proliferation, single experiments #1-#3 (Fig.4c) ([2]; Pd complex 10 µM): 1.234 and 0.8888 and 0.7605
cell proliferation, Ave (Fig.4c) ([2]; Pd complex 10 µM): 0.961
cell proliferation, single experiments #1-#3 (Fig.4c) ([2]; Pd complex 30 µM): 0.9447 and 0.7842 and 0.619
cell proliferation, Ave (Fig.4c) ([2]; Pd complex 30 µM): 0.7826
cell proliferation, Ave (Fig.4c) ([2]; Pd complex 100 µM): 0.07957
IP1 accumulation, single experiments ([3]; 30 µM Pd(bpy), N264H): 1.924 and 2.4034 and 1.9034 and 1.783
IP3 production evaluated by IP1 accumulation ([3]; Pd(bpy) 30 µM / 10 μM (method)): increased
Ca2+ response of individual cells (source data, sheet Suppl Fig1) [4]: 0.001923 and 0.0116 and 0.02873 and 0.01569 and 0.04602 and 0.003608
Ca2+ response of individual cells (source data Suppl Fig1), A59H/A265H [5]: -0.002885 and -0.009254 and 0.08719 and 0.008869 and -0.009738 and 0.003808 and 0.004285 and 0.02012 and -0.02372 and -0.01536 and -0.009285 and -0.02246 and 0.01085 and 0.1127
Ca2+ response of individual cells (source data, sheet Suppl Fig1) [6]: 0.505 and 0.8787 and 1.066 and 0.2405 and 0.9566 and 0.7627
Ca2+ response of individual cells (source data Suppl Fig1), A59H/G266H [7]: 0.2879 and 0.01529 and 0.1021 and -0.0047 and 0.3807 and 0.03304 and 0.0004923 and 0.02376 and -0.0301 and -0.02225 and 0.0004846 and -0.005677 and 0.7275 and 0.6736
EC50 ([8]; HEK293 cells, Fura-2, read-out: EC50, Ca2+ response (Δratio)): 2300 nM
Ca2+ response of individual cells (source data Suppl Fig1), K61H/N264H ([8]; single-cell values, K61H/N264H): 0.2703 and 0.5297 and 0.971 and -0.1576 and 0.5357 and 0.5344 and 1.086 and 1.005 and 0.6767 and 0.2693 and 0.4514 and -0.009392 and 0.06739 and -0.01372

Reference: PMC9203742 (Nature Communications, 2022)
